Values after ≈ are worked out from the molar mass of the structure shown.
Columns and labels:
[1] = Acute toxicity test by intraperitoneal administration; settings: mouse, in vivo, ip, ICR male mice, 1 week observation
Method: Acute toxicity test was conducted by intraperitoneal administration using a group of twenty ICR male mice (4 weeks old, body weight around 20 g).
LD50 value was calculated by the Richfield-Willcokson method from a lethal ratio observing the fate of mice during 1 week after administration of a test compound.

[2] = Water solubility; format: physicochemical
[3] = system: mouse leukemia L1210; assay: Antitumor activity for L1210 (life prolonging effect, mouse leukemia transplanted intraperitoneally); format: in vivo; settings: for minimal effective dose: Mus musculus, L1210, ip, denominator of therapeutic index, i.p. total dose, read-out: Minimum effective dose; for 40-day survivors: at optimum dose, group of six female CDF1 mice; for Therapeutic Index (Maximum tolerable dose/Minimum effective dose): i.p., L1210, CDF1 mice
Method: (§1) 5×10^5 cells of mouse leukemia L1210 were transplanted intraperitoneally to a group of six female CDF1 mice (7 weeks old, body weight 17-19 g). The test compound was administered intraperitoneally on day 1, 5 and 9 and its life prolonging effect was observed.
(§2) In a case of the administration of a test compound as an acid addition salt the test compound was dissolved in water. The total administration amount was 1.56 mg/kg-400 mg/kg. The antitumor activity was expressed by the value (T/C%) wherein T denotes the mean survival days in the drug administered group and C denotes those in the non administered group. In case of equal to or more than 125% the drug is considered to be effective.

[4] = as above; format: in vivo; settings: mouse, in vivo, ip; numerator of therapeutic index; i.p. total dose; read-out: Maximum tolerable dose
Method: as §1, §2

| SMILES | LD50 at 168 h [1] | solubility [2] | minimal effective dose [3] | 40-day survivors [3] | Therapeutic Index (Maximum tolerable dose/Minimum effective dose) [3] | MTD [4] |
| --- | --- | --- | --- | --- | --- | --- |
| CCc1c2c(nc3cc(F)c(C)cc13)-c1cc([C@@](O)(CC)C(=O)NCCN(C)C)c(COC(=O)CCSC)c(=O)n1C2 [Compound C25] | 154 mg/kg | > 63 mg/mL | < 1.56 mg/kg | 1/6 | > 8 | 12.5 mg/kg |
| CCC(=O)OCc1c([C@@](O)(CC)C(=O)NCCN(C)C)cc2n(c1=O)Cc1c-2nc2cc(F)c(C)cc2c1CC [Compound C23] | 184 mg/kg | 20 mg/mL (≈ 36.2 mM) | < 1.56 mg/kg | 0/6 | > 8 | 12.5 mg/kg |
| CCCC(=O)OCc1c([C@@](O)(CC)C(=O)NCCN(C)C)cc2n(c1=O)Cc1c-2nc2ccc(O)cc2c1CC [Compound C30] | 362 mg/kg | > 58 mg/mL | 6.25 mg/kg | 0/6 | 32 | 200 mg/kg |
| CCc1c2c(nc3ccc(O)cc13)-c1cc([C@@](O)(CC)C(=O)NCCN(C)C)c(COC(=O)CCSC)c(=O)n1C2 [Compound C32] | 307 mg/kg | > 62 mg/mL | 6.25 mg/kg | 0/6 | 32 | 200 mg/kg |
| CCc1c2c(nc3ccc(O)cc13)-c1cc([C@@](O)(CC)C(=O)NCCN(C)C)c(COC(=O)c3ccc(F)cc3)c(=O)n1C2 [Compound C36] | 477 mg/kg | 17 mg/mL (≈ 28.2 mM) | 12.5 mg/kg | 0/6 | 16 | 200 mg/kg |
| CCC(=O)OCc1c([C@@](O)(CC)C(=O)NCCN(C)C)cc2n(c1=O)Cc1c-2nc2ccc(Cl)cc2c1CC [Compound C3] | 186 mg/kg | 29 mg/mL (≈ 52.2 mM) | < 1.56 mg/kg | 1/6 | > 4 | 6.25 mg/kg |
| CCc1c2c(nc3cc(F)ccc13)-c1cc([C@@](O)(CC)C(=O)NCCN(C)C)c(COC(=O)c3ccc(OC)cc3)c(=O)n1C2 [Compound C11] | 146 mg/kg | 8 mg/mL (≈ 13 mM) | 6.25 mg/kg | 0/6 | 8 | 50 mg/kg |
| CCCC(=O)OCc1c([C@@](O)(CC)C(=O)NCCN(C)C)cc2n(c1=O)Cc1c-2nc2cc(F)c(OC)cc2c1CC [Compound C21] | 124 mg/kg | > 63 mg/mL | < 1.56 mg/kg | 0/6 | > 2 | 3.13 mg/kg |
| CCCC(=O)OCc1c([C@@](O)(CC)C(=O)NCCN(C)C)cc2n(c1=O)Cc1c-2nc2cc(F)ccc2c1CC [Compound C9] | 152 mg/kg | > 59 mg/mL | 1.56 mg/kg | 2/6 | 8 | 12.5 mg/kg |
| CCc1c2c(nc3cc(F)c(C)cc13)-c1cc([C@@](O)(CC)C(=O)NCCN(C)C)c(COC(=O)c3ccc(OC)cc3)c(=O)n1C2 [Compound C26] | 113 mg/kg | 9 mg/mL (≈ 14.3 mM) | 12.5 mg/kg | 0/6 | > 4 | 50 mg/kg |
| CCC(=O)OCc1c([C@@](O)(CC)C(=O)NCCN(C)C)cc2n(c1=O)Cc1c-2nc2cc(F)ccc2c1CC [Compound C8] | 124 mg/kg | 20 mg/mL (≈ 37.1 mM) | 1.56 mg/kg | 4/6 | 8 | 12.5 mg/kg |
| CCc1c2c(nc3cc(Cl)ccc13)-c1cc([C@@](O)(CC)C(=O)NCCN(C)C)c(COC(=O)CCSC)c(=O)n1C2 [Compound C12] | 284 mg/kg | > 64 mg/mL | 6.25 mg/kg | 1/6 |  | 25 mg/kg |
| CCc1c2c(nc3ccc(Cl)cc13)-c1cc([C@@](O)(CC)C(=O)NCCN(C)C)c(COC(=O)CCSC)c(=O)n1C2 [Compound C5] | 168 mg/kg | 21 mg/mL (≈ 34.9 mM) | < 1.56 mg/kg | 3/6 | > 4 | 6.25 mg/kg |

From patent US5843954A, “Camptothecin derivatives, preparations thereof and antitumor agents” (priority 1994, dated 1998)
